From patent publication US20070149535A1, “Protein kinase inhibitors” (ONCALIS AG, priority 2004, published 2007)

What was measured:
Test in all cases: Yeast growth assay, specificity profiling
Type in all cases: cell-based
Parameters in all cases: key: “−” indicates no growth restoration i.e. no activity against the particular kinase; “+”, “++”, and “+++” indicate activity detected by restoration of growth, classified into three categories of potency; “+”, “++”, and “+++” indicate activity detected by restoration of growth, classified into three categories of potency; “+”, “++”, and “+++” indicate activity detected by restoration of growth, classified into three categories of potency
Settings in all cases: 7 concentrations between 0.2 and 100 μM
[1] = biological target: T1, TEK (Homo sapiens, UniProt Q02763)
T1 construct: expressed in transfected cells; host or cells: yeast
Method: (§1) Specificity Profiling: Yeast Growth Assay
(§2) The yeast growth assay was performed as described in “Method for the identification and/or validation of receptor tyrosine kinase inhibitors” PCT/CH03/00694 (2004/10/24), section “Modes for Carrying out the Invention, Experiment 1 and Experiment 2.
(§3) Briefly, yeast cells carrying plasmids with the RTK of interest were grown in glucose containing medium (repressing expression). The cultures were diluted into galactose containing medium, which induces the expression of the kinase. Expression of the kinase inhibits growth of the yeast cells, which allows for positive selection of kinase inhibitors restoring growth of cells. Compounds were titrated at 7 concentrations between 0.2 and 100 μM.
(§4) Specificity profiling of compounds, using the yeast growth assay method described above. “−” indicates no growth restoration i.e. no activity against the particular kinase, “+”, “++”, and “+++” indicate activity detected by restoration of growth, classified into three categories of potency according to the maximal level of growth restoration reached and the concentration at which the maximal growth restoration is reached.

[2] = biological target: T2, EphA2 (Homo sapiens, UniProt P29317)
T2 construct: expressed in transfected cells; host or cells: yeast
Method: as §1, §2, §3, §4

[3] = biological target: T3, EphB2 (Homo sapiens, UniProt P29323)
T3 construct: expressed in transfected cells; host or cells: yeast
T3 sequence (P29323 19-1055): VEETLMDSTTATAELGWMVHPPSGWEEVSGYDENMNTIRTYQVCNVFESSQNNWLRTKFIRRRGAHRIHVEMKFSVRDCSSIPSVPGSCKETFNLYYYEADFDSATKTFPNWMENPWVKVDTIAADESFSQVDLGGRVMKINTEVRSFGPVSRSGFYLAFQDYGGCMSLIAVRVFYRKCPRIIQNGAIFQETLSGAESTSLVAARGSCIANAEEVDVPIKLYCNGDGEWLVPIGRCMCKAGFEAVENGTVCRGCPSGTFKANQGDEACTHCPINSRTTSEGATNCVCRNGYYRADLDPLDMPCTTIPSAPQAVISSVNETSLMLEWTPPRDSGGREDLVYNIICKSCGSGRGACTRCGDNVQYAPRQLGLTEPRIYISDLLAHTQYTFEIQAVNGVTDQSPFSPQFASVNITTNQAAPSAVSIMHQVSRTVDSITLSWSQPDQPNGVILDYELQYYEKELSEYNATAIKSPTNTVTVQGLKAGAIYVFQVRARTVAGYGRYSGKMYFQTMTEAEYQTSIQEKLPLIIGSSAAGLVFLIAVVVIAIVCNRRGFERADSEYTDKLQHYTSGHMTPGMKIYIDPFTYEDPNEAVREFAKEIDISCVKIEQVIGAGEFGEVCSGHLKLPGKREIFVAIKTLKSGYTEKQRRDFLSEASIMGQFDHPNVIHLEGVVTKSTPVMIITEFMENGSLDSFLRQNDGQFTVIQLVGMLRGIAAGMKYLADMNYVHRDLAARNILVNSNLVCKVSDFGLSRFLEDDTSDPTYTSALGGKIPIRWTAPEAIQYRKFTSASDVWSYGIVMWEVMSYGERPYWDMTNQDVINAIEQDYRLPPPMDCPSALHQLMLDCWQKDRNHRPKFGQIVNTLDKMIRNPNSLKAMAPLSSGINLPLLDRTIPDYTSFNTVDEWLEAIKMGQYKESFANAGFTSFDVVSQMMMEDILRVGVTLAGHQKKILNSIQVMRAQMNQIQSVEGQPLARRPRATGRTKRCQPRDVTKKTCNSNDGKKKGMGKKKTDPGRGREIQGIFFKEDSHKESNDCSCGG
Method: as §1, §2, §3, §4

[4] = biological target: T4, VEGFR2 (Homo sapiens, UniProt P35968)
T4 construct: expressed in transfected cells; host or cells: yeast
Method: as §1, §2, §3, §4

[5] = biological target: T5, IGF-1R (Homo sapiens, UniProt P08069)
T5 construct: expressed in transfected cells; host or cells: yeast
Method: as §1, §2, §3, §4

[6] = biological target: T6, VEGFR1 (Homo sapiens, UniProt P17948)
T6 construct: expressed in transfected cells; host or cells: yeast
Method: as §1, §2, §3, §4

[7] = biological target: T7, InsR (Homo sapiens, UniProt P06213)
T7 construct: expressed in transfected cells; host or cells: yeast
Method: as §1, §2, §3, §4

T7 sequence (P06213 28-1382): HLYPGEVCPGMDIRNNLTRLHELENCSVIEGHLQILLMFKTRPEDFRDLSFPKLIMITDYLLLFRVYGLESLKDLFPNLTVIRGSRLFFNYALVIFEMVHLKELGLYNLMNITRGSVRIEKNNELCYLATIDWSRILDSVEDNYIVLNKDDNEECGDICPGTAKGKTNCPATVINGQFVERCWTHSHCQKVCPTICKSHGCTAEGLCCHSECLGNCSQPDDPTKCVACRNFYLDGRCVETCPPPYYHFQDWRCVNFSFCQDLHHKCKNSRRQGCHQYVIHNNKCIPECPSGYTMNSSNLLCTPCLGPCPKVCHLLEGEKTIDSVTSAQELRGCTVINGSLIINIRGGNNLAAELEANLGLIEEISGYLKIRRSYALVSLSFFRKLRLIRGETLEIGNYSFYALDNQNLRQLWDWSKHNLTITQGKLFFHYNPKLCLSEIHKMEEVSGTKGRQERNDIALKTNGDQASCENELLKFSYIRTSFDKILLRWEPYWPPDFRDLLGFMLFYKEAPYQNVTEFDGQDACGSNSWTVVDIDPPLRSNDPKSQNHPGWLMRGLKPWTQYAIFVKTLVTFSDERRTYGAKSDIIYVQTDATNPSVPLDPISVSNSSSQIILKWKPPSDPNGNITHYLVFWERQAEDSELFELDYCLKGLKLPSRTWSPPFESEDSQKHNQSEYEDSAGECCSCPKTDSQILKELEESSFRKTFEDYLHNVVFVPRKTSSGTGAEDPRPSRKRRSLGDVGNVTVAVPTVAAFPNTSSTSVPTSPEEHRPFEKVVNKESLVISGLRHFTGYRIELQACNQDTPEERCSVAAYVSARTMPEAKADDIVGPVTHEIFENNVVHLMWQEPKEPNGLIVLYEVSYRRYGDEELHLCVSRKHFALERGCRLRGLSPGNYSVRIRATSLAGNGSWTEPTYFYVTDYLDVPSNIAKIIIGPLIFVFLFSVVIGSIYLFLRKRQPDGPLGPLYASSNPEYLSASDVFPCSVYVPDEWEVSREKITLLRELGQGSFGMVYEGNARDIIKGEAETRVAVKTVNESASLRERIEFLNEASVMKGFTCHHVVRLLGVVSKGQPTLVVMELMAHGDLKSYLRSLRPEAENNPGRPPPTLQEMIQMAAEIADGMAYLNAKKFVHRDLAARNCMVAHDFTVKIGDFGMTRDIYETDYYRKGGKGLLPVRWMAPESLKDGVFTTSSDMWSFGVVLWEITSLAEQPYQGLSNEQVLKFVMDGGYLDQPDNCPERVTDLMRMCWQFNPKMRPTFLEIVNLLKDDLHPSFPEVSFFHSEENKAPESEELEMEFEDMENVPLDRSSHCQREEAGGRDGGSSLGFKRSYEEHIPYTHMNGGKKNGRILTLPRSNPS
T1 sequence (Q02763 23-1124): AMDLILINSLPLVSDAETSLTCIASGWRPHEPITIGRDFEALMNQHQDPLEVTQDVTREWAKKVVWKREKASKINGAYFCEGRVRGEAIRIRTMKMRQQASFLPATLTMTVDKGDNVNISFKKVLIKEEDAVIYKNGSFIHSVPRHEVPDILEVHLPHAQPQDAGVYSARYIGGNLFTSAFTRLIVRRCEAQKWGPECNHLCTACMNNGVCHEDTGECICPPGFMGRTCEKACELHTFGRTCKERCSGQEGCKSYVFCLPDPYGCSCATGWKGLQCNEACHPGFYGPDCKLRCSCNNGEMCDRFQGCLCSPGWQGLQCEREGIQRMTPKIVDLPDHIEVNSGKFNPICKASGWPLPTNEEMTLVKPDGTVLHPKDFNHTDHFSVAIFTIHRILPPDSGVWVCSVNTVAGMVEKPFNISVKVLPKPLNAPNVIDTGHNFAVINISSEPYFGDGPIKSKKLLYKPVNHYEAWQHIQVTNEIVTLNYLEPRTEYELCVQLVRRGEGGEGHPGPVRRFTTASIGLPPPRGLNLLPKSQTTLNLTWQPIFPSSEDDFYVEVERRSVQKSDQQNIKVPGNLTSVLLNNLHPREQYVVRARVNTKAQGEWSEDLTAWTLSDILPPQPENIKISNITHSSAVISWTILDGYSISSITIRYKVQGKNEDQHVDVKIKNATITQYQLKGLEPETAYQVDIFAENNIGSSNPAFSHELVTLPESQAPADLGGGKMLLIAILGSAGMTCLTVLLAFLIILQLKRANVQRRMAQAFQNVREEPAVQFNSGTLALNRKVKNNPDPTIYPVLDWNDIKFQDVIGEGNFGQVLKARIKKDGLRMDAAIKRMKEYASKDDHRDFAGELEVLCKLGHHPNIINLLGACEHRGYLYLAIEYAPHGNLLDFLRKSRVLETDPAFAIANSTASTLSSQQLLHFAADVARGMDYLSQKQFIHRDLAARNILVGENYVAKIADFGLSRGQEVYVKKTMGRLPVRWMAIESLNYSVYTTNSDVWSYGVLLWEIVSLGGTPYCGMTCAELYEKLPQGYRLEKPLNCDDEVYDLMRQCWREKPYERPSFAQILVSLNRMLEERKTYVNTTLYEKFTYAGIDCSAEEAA
T5 sequence (P08069 31-1367): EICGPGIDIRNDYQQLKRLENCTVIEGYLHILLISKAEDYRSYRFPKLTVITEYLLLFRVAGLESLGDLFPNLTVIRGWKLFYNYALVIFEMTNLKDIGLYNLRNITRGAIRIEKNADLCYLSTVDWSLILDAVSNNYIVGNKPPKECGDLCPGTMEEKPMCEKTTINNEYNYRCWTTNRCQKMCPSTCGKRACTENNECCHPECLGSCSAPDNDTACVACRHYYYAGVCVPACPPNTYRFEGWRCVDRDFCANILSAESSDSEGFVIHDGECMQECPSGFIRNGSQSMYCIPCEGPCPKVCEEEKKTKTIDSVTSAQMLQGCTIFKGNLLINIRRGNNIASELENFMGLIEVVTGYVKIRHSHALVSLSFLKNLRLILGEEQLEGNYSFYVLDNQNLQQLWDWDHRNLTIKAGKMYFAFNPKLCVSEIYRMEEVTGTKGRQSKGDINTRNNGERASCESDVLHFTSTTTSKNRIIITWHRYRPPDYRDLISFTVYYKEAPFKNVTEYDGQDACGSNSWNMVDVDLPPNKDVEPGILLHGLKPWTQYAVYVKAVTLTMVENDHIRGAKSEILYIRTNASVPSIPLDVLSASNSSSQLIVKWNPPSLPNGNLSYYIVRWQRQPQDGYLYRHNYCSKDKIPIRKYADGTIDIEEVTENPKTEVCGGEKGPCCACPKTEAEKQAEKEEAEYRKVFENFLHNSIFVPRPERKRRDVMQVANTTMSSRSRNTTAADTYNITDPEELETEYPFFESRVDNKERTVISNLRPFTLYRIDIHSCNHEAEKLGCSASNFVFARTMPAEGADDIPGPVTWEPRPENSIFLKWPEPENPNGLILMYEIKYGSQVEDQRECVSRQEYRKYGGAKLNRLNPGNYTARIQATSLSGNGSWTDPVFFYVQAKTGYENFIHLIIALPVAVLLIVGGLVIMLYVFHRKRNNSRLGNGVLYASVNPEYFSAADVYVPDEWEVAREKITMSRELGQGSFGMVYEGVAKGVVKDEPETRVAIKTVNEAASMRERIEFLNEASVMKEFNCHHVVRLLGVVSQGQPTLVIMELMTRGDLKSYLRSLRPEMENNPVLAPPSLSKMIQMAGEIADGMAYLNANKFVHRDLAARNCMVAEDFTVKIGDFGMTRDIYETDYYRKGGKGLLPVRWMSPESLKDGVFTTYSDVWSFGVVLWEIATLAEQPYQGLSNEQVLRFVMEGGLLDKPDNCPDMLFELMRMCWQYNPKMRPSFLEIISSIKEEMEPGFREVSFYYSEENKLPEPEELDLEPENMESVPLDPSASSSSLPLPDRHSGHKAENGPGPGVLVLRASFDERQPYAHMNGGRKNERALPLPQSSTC
T2 sequence (P29317 24-976): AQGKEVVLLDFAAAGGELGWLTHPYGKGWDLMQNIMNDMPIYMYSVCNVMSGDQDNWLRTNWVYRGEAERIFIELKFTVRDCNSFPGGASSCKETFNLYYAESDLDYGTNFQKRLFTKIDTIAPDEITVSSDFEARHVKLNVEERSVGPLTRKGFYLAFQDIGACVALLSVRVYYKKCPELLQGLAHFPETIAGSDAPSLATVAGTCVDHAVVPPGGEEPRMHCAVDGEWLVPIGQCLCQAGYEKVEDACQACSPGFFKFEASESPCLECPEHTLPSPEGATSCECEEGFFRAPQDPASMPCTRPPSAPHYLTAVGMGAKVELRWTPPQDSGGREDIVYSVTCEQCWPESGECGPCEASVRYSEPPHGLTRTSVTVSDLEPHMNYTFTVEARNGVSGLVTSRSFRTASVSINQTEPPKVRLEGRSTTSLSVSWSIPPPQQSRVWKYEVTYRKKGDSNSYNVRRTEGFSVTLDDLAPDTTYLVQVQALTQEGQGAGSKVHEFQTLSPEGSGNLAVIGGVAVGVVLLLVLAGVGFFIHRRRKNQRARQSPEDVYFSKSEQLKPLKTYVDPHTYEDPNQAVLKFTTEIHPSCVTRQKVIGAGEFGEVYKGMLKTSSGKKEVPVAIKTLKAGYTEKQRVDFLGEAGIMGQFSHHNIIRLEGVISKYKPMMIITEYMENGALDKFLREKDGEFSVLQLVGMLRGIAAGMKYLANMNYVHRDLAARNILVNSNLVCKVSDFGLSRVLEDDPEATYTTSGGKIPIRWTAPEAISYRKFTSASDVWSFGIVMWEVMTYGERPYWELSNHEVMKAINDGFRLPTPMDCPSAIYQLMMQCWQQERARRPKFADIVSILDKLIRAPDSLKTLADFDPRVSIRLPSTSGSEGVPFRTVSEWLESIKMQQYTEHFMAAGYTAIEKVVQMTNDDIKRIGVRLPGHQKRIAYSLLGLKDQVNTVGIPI

| TEK growth restoration [1] | EphA2 growth restoration [2] | EphB2 growth restoration [3] | VEGFR2 growth restoration [4] | IGF-1R growth restoration [5] | VEGFR1 growth restoration [6] | InsR growth restoration [7] | SMILES |
| --- | --- | --- | --- | --- | --- | --- | --- |
| − | + | +++ | − | − | − | − | COc1cccc(-c2nc3c(C)nccn3c2Nc2cccc(Cl)c2)c1 [compound 48, (3-Chloro-phenyl)-[2-(3-methoxy-phenyl)-8-methyl-imidazo[1,2-a]pyrazin-3-yl]-amine] |
| − | − | + | − | − | − | − | Fc1ccc(Nc2c(-c3ccccc3)nc3cnccn23)cc1F [compound 30, (3,4-Difluoro-phenyl)-(2-phenyl-imidazo[1,2-a]pyrazin-3-yl)-amine] |
| − | − | ++ | − | − | − | − | Cc1cccc(Nc2c(-c3ccccc3)nc3c(C)nccn23)c1 [compound 43, (8-Methyl-2-phenyl-imidazo[1,2-a]pyrazin-3-yl)-m-tolyl-amine] |
| − | + | +++ | − | − | − | − | Cc1nccn2c(Nc3ccccc3)c(-c3ccccc3)nc12 [compound 39, (8-Methyl-2-phenyl-imidazo[1,2-a]pyrazin-3-yl)-phenyl-amine] |

Continued, molecule first:

| SMILES | TEK growth restoration [1] | EphA2 growth restoration [2] | EphB2 growth restoration [3] | VEGFR2 growth restoration [4] | IGF-1R growth restoration [5] | VEGFR1 growth restoration [6] | InsR growth restoration [7] |
| --- | --- | --- | --- | --- | --- | --- | --- |
| Cc1nccn2c(Nc3cccc(Cl)c3)c(-c3ccccc3)nc12 [compound 3, (3-Chloro-phenyl)-(8-methyl-2-phenyl-imidazo[1,2-a]pyrazin-3-yl)-amine] | − | − | ++ | − | − | − | − |
| CC(C)c1nc2cnccn2c1Nc1cccc(Cl)c1 [compound 12, (3-Chloro-phenyl)-(2-isopropyl-imidazo[1,2-a]pyrazin-3-yl)-amine] | − | + | + | − | − | − | − |
| c1ccc(Nc2c(-c3ccccc3)nc3cnccn23)cc1 [compound 23, Phenyl-(2-phenyl-imidazo[1,2-a]pyrazin-3-yl)-amine] | − | + | ++ | − | − | − | − |
| Nc1ccc(-c2nc3cnccn3c2Nc2cccc(Cl)c2)cc1 [compound 10, [2-(4-Amino-phenyl)-imidazo[1,2-a]pyrazin-3-yl]-(3-chloro-phenyl)-amine] | − | ++ | ++ | − | − | − | − |
